± gives the expanded uncertainty stated by the source.
Columns and labels:
[1] = Liquid; for mass density: 293.2 K, 101.33 kPa; for Normal boiling temperature: Distillation
[2] = refractive index (Na D-line) (dimensionless); conditions: 293.2 K; 101.33 kPa; Liquid; Standard Abbe refractometry
[3] = Boiling temperature at pressure P; conditions: 1.733 kPa; Liquid; Distillation

SMILES	mass density [1] [kg/m3]	Normal boiling temperature [1] [°C]	refractive index [2]	Boiling temperature at pressure P [3] [°C]
COC(=O)CCC(=O)OC [dimethyl 1,4-butanedioate]	1119.13 ± 1.6	196.1 ± 0.2	1.41969 ± 0.00078	
COC(=O)CCCCC(=O)OC [dimethyl 1,6-hexanedioate]	1061.72 ± 0.56		1.42825 ± 0.0007	115 ± 1
COC(=O)CCCC(=O)OC [dimethyl pentanedioate]	1087.67 ± 0.63	214.2 ± 0.2	1.42454 ± 0.0007	
O=CO [formic acid]	1220.04 ± 1	101.2 ± 0.2	1.37144 ± 0.0007	

Reference: the NIST ThermoML archive (doi:10.1021/je700206y)
